Data on 17 compounds can be found in PubChem BioAssay (NCI).

“And” between values parts separate entries of the source, which are not always exact repeats. Identical values can stand only once.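 1) Cells in 96-well plates. 2) Compound, 48 h, 5 concentrations. 3) Linear interpolation between surrounding doses. 4) Unreached endpoint = highest concentration. GI50 is the concentration that inhibits growth by half. TGI: total growth inhibition.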

Among the test systems are SK-MEL-2 melanoma; HCT-116 colon; NCI-H522 lung; SNB-19 CNS; OVCAR-5 ovarian; HCT-15 colon; KM12 colon; SF-268 CNS; NCI-H460 lung; TK-10 renal.
Holding throughout (test): NCI anticancer screen, dose series, 48 h

In the case of `COc1cc(/C=N/N=C(\N)NO)ccc1O`, the TGI in the experiment with SK-MEL-2 melanoma is over 100 µM; in the experiment on HCT-116 colon, over 100 µM; with NCI-H522 lung, over 100 µM; in the experiment on SNB-19 CNS, over 100 µM; with OVCAR-5 ovarian, 90.3 µM; with HCT-15 colon, over 100 µM. Besides, the TGI in the experiment with KM12 colon, in the experiment with SF-268 CNS and with NCI-H460 lung was over 100 µM in each case.

Take `CCN(CC)CCCC(C)Nc1c2ccc(Cl)cc2nc2cc(Cl)ccc12` (configuration not stated): the TGI with SK-MEL-2 melanoma was 29.2 µM; in the experiment on HCT-116 colon, 7.56 µM; in the experiment on NCI-H522 lung, 17.5 µM; in the experiment on SNB-19 CNS, 40.8 µM; with OVCAR-5 ovarian, 21.2 µM; with HCT-15 colon, 9.85 µM. Also, the figures for the TGI in the experiment on KM12 colon, in the experiment on SF-268 CNS and in the experiment with NCI-H460 lung were 9.29 µM, 16.3 µM and 12 µM, respectively.

As to `CC(C)C(=O)Nc1ccc(-c2nc(-c3cccc(OCCN4CCOCC4)c3)c(-c3ccnc(Br)c3)[nH]2)cc1`, the GI50 with SK-MEL-2 melanoma is 2.21 µM; in the experiment with TK-10 renal, 4.32 µM; with HCT-116 colon it was 3.04 µM; with NCI-H522 lung it was 3.26 µM; in the experiment with SNB-19 CNS it was 3.46 µM; with OVCAR-5 ovarian, 6.42 µM. Also, the GI50 was 2.02 µM with HCT-15 colon, 3.2 µM with KM12 colon, 4.26 µM in the experiment with SF-268 CNS and 3.98 µM in the experiment with NCI-H460 lung. For the same compound, the TGI in the experiment with SK-MEL-2 melanoma was 5.54 µM; in the experiment with TK-10 renal, 31.3 µM; in the experiment with HCT-116 colon, 13.5 µM; in the experiment on NCI-H522 lung, 48.7 µM; with SNB-19 CNS, over 100 µM; in the experiment with OVCAR-5 ovarian it was over 100 µM. In addition, the TGI in the experiment with HCT-15 colon is 4.67 µM; with KM12 colon, over 100 µM; in the experiment with SF-268 CNS it was over 100 µM; with NCI-H460 lung it was 25.4 µM.

Turning to `OC(c1ccccc1)C1CC2C=CC1C2` (configuration not stated), the TGI in the experiment with SK-MEL-2 melanoma, in the experiment on TK-10 renal, in the experiment with HCT-116 colon, in the experiment with NCI-H522 lung, in the experiment with SNB-19 CNS and in the experiment with OVCAR-5 ovarian was over 100 µM throughout. The TGI with HCT-15 colon, in the experiment with KM12 colon, in the experiment on SF-268 CNS and in the experiment on NCI-H460 lung was over 100 µM in each case.

As for `CN(CC(=O)O)CC(=O)O`, the TGI in the experiment on SK-MEL-2 melanoma, in the experiment on TK-10 renal, in the experiment with HCT-116 colon, with NCI-H522 lung, in the experiment with SNB-19 CNS and in the experiment on OVCAR-5 ovarian was over 100 µM in each case. Further, the TGI in the experiment with HCT-15 colon, in the experiment on KM12 colon, with SF-268 CNS and in the experiment on NCI-H460 lung was over 100 µM in each case.

Regarding `COc1ccc(N2C(=O)C(=O)N(C)C2=O)c2ccccc12`, the TGI in the experiment with SK-MEL-2 melanoma, in the experiment with TK-10 renal, in the experiment with HCT-116 colon, in the experiment on NCI-H522 lung, in the experiment on SNB-19 CNS and in the experiment with OVCAR-5 ovarian was over 10 µM each time. Besides, the TGI in the experiment on HCT-15 colon, in the experiment on KM12 colon, with SF-268 CNS and in the experiment on NCI-H460 lung was over 10 µM each time.

Regarding `COC1=CC(=O)c2c(c(COC(C)=O)cn2C)C1=O`, the TGI in the experiment on SK-MEL-2 melanoma was 0.373 µM; in the experiment with TK-10 renal it was 0.207 µM; in the experiment with HCT-116 colon it was 0.216 µM; in the experiment on NCI-H522 lung it was 0.0405 µM; in the experiment with SNB-19 CNS, 8.18 µM; with OVCAR-5 ovarian it was 0.0689 µM. The TGI in the experiment with HCT-15 colon was 0.0522 µM; with KM12 colon it was 0.763 µM; in the experiment with SF-268 CNS it was 0.808 µM; with NCI-H460 lung, 0.835 µM.

For `CC[C@@]1(O)C(=O)OCc2c1cc1n(c2=O)Cc2cc3c(CN(C)C)c(O)ccc3nc2-1`, the TGI is 14.2 µM and 64.8 µM and 88.7 µM in the experiment on TK-10 renal; 18.9 µM and 11.7 µM in the experiment on HCT-116 colon; 7.58 µM and 15.1 µM and 12.2 µM in the experiment on KM12 colon; 0.499 µM and 1.58 µM and 0.222 µM with NCI-H460 lung. The GI50 is 0.0681 µM in the experiment on HCT-116 colon; < 0.025 µM and 0.0206 µM and 0.0416 µM with NCI-H522 lung; < 0.0131 µM and 0.026 µM in the experiment with SNB-19 CNS; 0.168 µM and 0.217 µM and 0.407 µM with OVCAR-5 ovarian; 0.304 µM and 0.0813 µM and 0.67 µM in the experiment on HCT-15 colon; 0.15 µM and 0.413 µM and 0.35 µM in the experiment with KM12 colon. For the same compound, the GI50 in the experiment on SF-268 CNS is < 0.01 µM and 0.00517 µM and 0.0175 µM; with NCI-H460 lung it was < 0.01 µM and 0.00456 µM and 0.021 µM.

`CC1(CO)C(O)CCC2(C)C1C(O)CC1CC3CC12CCC3(O)CO` (configuration not stated): the TGI in the experiment on SK-MEL-2 melanoma, in the experiment with HCT-116 colon, with NCI-H522 lung, in the experiment with SNB-19 CNS, with OVCAR-5 ovarian and in the experiment with HCT-15 colon was over 225 µM throughout. Also, the TGI in the experiment with KM12 colon, in the experiment with SF-268 CNS and in the experiment with NCI-H460 lung was over 225 µM each time.

As for `Clc1ccc(C2CC(c3cccc(Nc4ccncc4)c3)=NN2c2ccccc2)cc1` (configuration not stated), the GI50 was 1.98 µM in the experiment on SK-MEL-2 melanoma; 1.83 µM with TK-10 renal; 1.48 µM with HCT-116 colon; 1.57 µM in the experiment with NCI-H522 lung; 1.71 µM with SNB-19 CNS; 1.66 µM in the experiment on OVCAR-5 ovarian. Moreover, the GI50 in the experiment on HCT-15 colon is 1.42 µM; in the experiment with KM12 colon, 1.7 µM; in the experiment on SF-268 CNS, 1.87 µM; with NCI-H460 lung, 1.91 µM. For the same compound, the TGI in the experiment on SK-MEL-2 melanoma turned out to be 3.84 µM; in the experiment with TK-10 renal, 3.45 µM; with HCT-116 colon, 2.98 µM; in the experiment on NCI-H522 lung, 3.24 µM; in the experiment on SNB-19 CNS, 3.18 µM; in the experiment with OVCAR-5 ovarian, 3.07 µM. The TGI in the experiment with HCT-15 colon came out at 2.83 µM; with KM12 colon, 3.28 µM; in the experiment with SF-268 CNS, 3.84 µM; with NCI-H460 lung, 3.65 µM.

Regarding `O=c1ccc2c(Cl)cccc2o1`, the TGI with SK-MEL-2 melanoma, in the experiment on TK-10 renal, with HCT-116 colon, in the experiment with NCI-H522 lung, with SNB-19 CNS and in the experiment with OVCAR-5 ovarian was over 100 µM throughout. For the same compound, the TGI in the experiment on KM12 colon, with SF-268 CNS and in the experiment with NCI-H460 lung was over 100 µM in each case.

Consider `CNCCCn1c2c(c3ccc(Cl)cc3c1=O)C(=O)c1cc(OC)cnc1-2`, for which the GI50 in the experiment on SK-MEL-2 melanoma was 13.2 µM; with SNB-19 CNS, 0.614 µM; with OVCAR-5 ovarian, 1.69 µM; in the experiment with KM12 colon it was 1.1 µM; in the experiment with SF-268 CNS it was 0.397 µM; in the experiment with NCI-H460 lung it was 0.0462 µM. Besides, the TGI was 33.4 µM in the experiment on SK-MEL-2 melanoma; 2.26 µM in the experiment with SNB-19 CNS; 3.18 µM with OVCAR-5 ovarian; 2.43 µM in the experiment on KM12 colon; 2.19 µM in the experiment with SF-268 CNS; 1.25 µM with NCI-H460 lung.

For the compound `CC(C)NC(=O)OCc1nnn2c1CCC2`, the TGI in the experiment with SK-MEL-2 melanoma, with TK-10 renal, with HCT-116 colon, in the experiment with NCI-H522 lung, with OVCAR-5 ovarian and with HCT-15 colon was over 100 µM throughout. For the same compound, the TGI in the experiment on KM12 colon and in the experiment with NCI-H460 lung was over 100 µM in each case.

`CSC1=C(SC)C(=O)c2cn(C)c(=O)cc2C1=O`: the TGI was determined as 17.1 µM in the experiment with SK-MEL-2 melanoma; 5.39 µM in the experiment with TK-10 renal; 3.33 µM in the experiment on HCT-116 colon; 2.19 µM in the experiment with NCI-H522 lung; 31.1 µM in the experiment on SNB-19 CNS; 35.2 µM in the experiment with OVCAR-5 ovarian. Moreover, the TGI in the experiment on HCT-15 colon was 4.78 µM; in the experiment with KM12 colon, 48.3 µM; in the experiment with SF-268 CNS, 17 µM; in the experiment with NCI-H460 lung, 32 µM.

For the compound `CC(C(=O)NCCNC(=O)CCCC(=O)N(C)O)C(=O)NCCNC(=O)CCCC(=O)N(C)O`, the TGI with SK-MEL-2 melanoma, in the experiment with TK-10 renal, in the experiment with NCI-H522 lung, with SNB-19 CNS, with OVCAR-5 ovarian and in the experiment on HCT-15 colon was over 100 µM throughout. The TGI in the experiment on KM12 colon, with SF-268 CNS and in the experiment on NCI-H460 lung was over 100 µM each time.

Regarding `CC(C)=CC1C(COC(=O)c2ccccc2Cl)C1(C)C` (configuration not stated), the TGI in the experiment with SK-MEL-2 melanoma was over 100 µM; with TK-10 renal, over 100 µM; with HCT-116 colon, over 100 µM; in the experiment on NCI-H522 lung, 49.5 µM; with SNB-19 CNS, over 100 µM; in the experiment with OVCAR-5 ovarian it was over 100 µM. In addition, the TGI with HCT-15 colon is 75.4 µM; in the experiment on KM12 colon it was 99.1 µM; with SF-268 CNS, over 100 µM; in the experiment with NCI-H460 lung it was over 100 µM.

For `C1=Nc2ccccc2Cn2nncc21`, the TGI in the experiment on SK-MEL-2 melanoma, with TK-10 renal, in the experiment on HCT-116 colon, in the experiment on NCI-H522 lung, in the experiment on SNB-19 CNS and with OVCAR-5 ovarian was over 100 µM in each case. The TGI in the experiment with HCT-15 colon, with KM12 colon, with SF-268 CNS and in the experiment with NCI-H460 lung was over 100 µM throughout.
